Data from publication PMC8187479, “Sugar phosphate activation of the stress sensor eIF2B” (Nature Communications, 2021).

The compounds below were run against T1, eIF2Bα (Homo sapiens, UniProt Q14232) (assay: MIDAS (mass spectrometry integrated with equilibrium dialysis) metabolite binding screen). Conditions: MIDAS metabolite binding screen with eIF2Bα; sheet "eIF2Ba".
T1 construct: made in house; host or cells: E. coli BL21(DE3)
T1 sequence (Q14232 1-305): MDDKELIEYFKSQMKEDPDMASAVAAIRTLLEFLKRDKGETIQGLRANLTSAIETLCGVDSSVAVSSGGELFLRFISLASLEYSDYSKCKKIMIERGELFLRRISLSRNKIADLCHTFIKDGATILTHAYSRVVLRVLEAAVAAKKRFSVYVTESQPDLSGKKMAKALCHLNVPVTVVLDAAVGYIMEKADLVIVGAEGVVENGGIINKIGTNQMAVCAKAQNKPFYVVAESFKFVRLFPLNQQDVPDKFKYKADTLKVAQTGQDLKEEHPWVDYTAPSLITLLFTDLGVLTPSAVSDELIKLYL
In short: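 Hits called at Storey q < 0.1 on z-scores of PCA-corrected log2 fold change between protein and metabolite chambers, quantified by FIA-MS in triplicate.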

Structure (SMILES) | log2(corrected fold change)
Nc1ncnc2c1ncn2[C@H]1C[C@H](O)[C@@H](COP(=O)(O)OP(=O)(O)O)O1 [Deoxyadenosine diphosphate] | -0.1103
Nc1ncnc2c1ncn2[C@H]1C[C@H](O)[C@@H](COP(=O)(O)O)O1 [Deoxyadenosine monophosphate] | -0.0746
Nc1ccn([C@H]2C[C@H](O)[C@@H](COP(=O)(O)OP(=O)(O)OP(=O)(O)O)O2)c(=O)n1 [Deoxycytidine triphosphate] | -0.0001501
CNC[C@H](O)c1ccc(O)c(O)c1 [Epinephrine] | -0.04113
NCCO [Ethanolamine] | 0.0208
Cc1cc2nc3c(=O)[nH]c(=O)nc-3n(C[C@H](O)[C@H](O)[C@H](O)COP(=O)(O)OP(=O)(O)OC[C@H]3O[C@@H](n4cnc5c(N)ncnc54)[C@H](O)[C@@H]3O)c2cc1C [Flavin adenine dinucleotide] | -0.0588
OC[C@H]1O[C@H](OC2[C@@H](O)[C@H](O)C(O)[C@H](O)[C@@H]2O)[C@H](O)[C@@H](O)[C@H]1O (some centres unmarked) [Galactinol] | -0.02052
O=C1O[C@H](CO)[C@@H](O)[C@H](O)[C@H]1O [Glucono delta-lactone] | 0.01629
O=C(O)CCCC(=O)O [Glutaric acid] | -0.03876
Nc1nc2c(ncn2[C@@H]2O[C@H](COP(=O)(O)OP(=O)(O)O)[C@@H](O)[C@H]2O)c(=O)[nH]1 [Guanosine 5-diphosphate] | -0.07145
Nc1nc2c(ncn2[C@@H]2O[C@H](COP(=O)(O)OP(=O)(O)O[C@H]3O[C@H](CO)[C@@H](O)[C@H](O)[C@@H]3O)[C@@H](O)[C@H]2O)c(=O)[nH]1 [Guanosine diphosphate mannose] | 0.001828
Nc1nc2c(ncn2[C@@H]2O[C@H](CO)[C@@H](O)[C@H]2O)c(=O)[nH]1 [Guanosine] | 0.01196
COc1cc(CC(=O)O)ccc1O [Homovanillic acid] | -0.006498
O=C[C@H](O)[C@@H](O)[C@@H](O)CO [L-Arabinose_1] | 0.02262
NC(=O)NCCC[C@H](N)C(=O)O [L-Citrulline] | -0.01086
C[C@@H]1O[C@H](OP(=O)(O)O)[C@@H](O)[C@H](O)[C@@H]1O [L-Fucose 1-phosphate] | -0.0359
O=C1O[C@H]([C@@H](O)CO)[C@H](O)[C@@H]1O [L-Gulonic acid gamma-lactone] | 0.02733

Further lines, results first:

log2(corrected fold change) | Structure (SMILES)
0.00577 | O=C(O)CCCCCCCCCCC(=O)O [Dodecanedioic acid]
-0.03876 | CCC(C(=O)O)C(=O)O [Ethylmalonic acid]
-0.02054 | Nc1nc(=O)c2nc(CNc3ccc(C(=O)N[C@@H](CCC(=O)O)C(=O)O)cc3)cnc2[nH]1 [Folic acid]
-0.06864 | O=C(O)CO [Glycolic acid]
-0.02095 | O=CC(=O)O [Glyoxylate]
0.07626 | O=C(O)CNC(=O)c1ccccc1 [Hippuric acid]
-0.04906 | O=C(O)C(=O)CO [Hydroxypyruvate]
0.1853 | CC(C)CC(=O)SCCNC(=O)CCNC(=O)[C@H](O)C(C)(C)COP(=O)(O)OP(=O)(O)OC[C@H]1O[C@@H](n2cnc3c(N)ncnc32)[C@H](O)[C@@H]1OP(=O)(O)O [Isovaleryl coenzyme A]
0.06742 | O=C(O)CCC(=O)C(=O)O [Ketoglutaric acid]
0.0004222 | C[C@H](N)C(=O)O [L-Alanine]
-0.00688 | CC[C@@H](C)[C@H](N)C(=O)O [L-Alloisoleucine]
-0.01554 | NCCC(=O)N[C@@H](Cc1cnc[nH]1)C(=O)O [L-Carnosine]
-0.03443 | N[C@@H](CCSC[C@H](N)C(=O)O)C(=O)O [L-Cystathionine]
0.001606 | N[C@@H](CS(=O)(=O)O)C(=O)O [L-Cysteic acid]
0.04101 | N[C@@H](CSSC[C@H](N)C(=O)O)C(=O)O [L-Cystine]
-0.06063 | C[C@H](O)[C@@H](O)[C@@H](O)[C@H](O)C=O [L-Fucose]
-0.0058 | O=C(O)CC[C@H](O)C(=O)O [L-Hydroxyglutaric acid]
-0.00688 | CC[C@H](C)[C@H](N)C(=O)O [L-Isoleucine]
-0.02892 | C[C@H](O)C(=O)O [L-Lactic acid]
-0.00688 | CC(C)C[C@H](N)C(=O)O [L-Leucine]
-0.01079 | O=C(O)C[C@H](O)C(=O)O [L-Malic acid]
-0.04409 | N[C@@H](Cc1ccccc1)C(=O)O [L-Phenylalanine]

Same assay, conditions: MIDAS screen, sheet eIF2Ba; metabolites screened in pools 1-4; p-value and q-value given

Structure (SMILES) | log2(corrected fold change)
Nc1nc2c(ncn2[C@H]2C[C@H](O)[C@@H](COP(=O)(O)O)O2)c(=O)[nH]1 [Deoxyguanylate] | 0.08261
Nc1ncnc2c1ncn2[C@@H]1O[C@H](COP(=O)(O)OP(=O)(O)OP(=O)(O)OC[C@@H]2O[C@H](n3cnc4c(N)ncnc43)[C@@H](O)[C@H]2O)[C@@H](O)[C@H]1O [Diadenosine triphosphate] | -0.1669
CC1CNC(=O)NC1=O (centres unmarked) [Dihydrothymine] | -0.08021
O=C1CCNC(=O)N1 [Dihydrouracil] | -0.08721
CN(C)c1ncnc2nc[nH]c12 [Dimethylaminopurine] | -0.08009
Nc1nc2nc[nH]c2c(=O)[nH]1 [Guanine] | 0.2851
Nc1nc2c(ncn2[C@@H]2O[C@H](COP(=O)(O)O)[C@@H](O)[C@H]2O)c(=O)[nH]1 [Guanosine 5-monophosphate] | 1.415
Nc1nc2c(ncn2[C@@H]2O[C@H](COP(=O)(O)OP(=O)(O)OP(=O)(O)O)[C@@H](O)[C@H]2O)c(=O)[nH]1 [Guanosine 5-triphosphate] | 0.3966
NCCc1c[nH]cn1 [Histamine] | 0.1325
NC(=O)NCCCC[C@H](N)C(=O)O [Homocitrulline] | 0.1565
NCCS(=O)O [Hypotaurine] | 0.03998
O=c1[nH]cnc2nc[nH]c12 [Hypoxanthine] | 0.136
O=c1[nH]cnc2c1ncn2[C@@H]1O[C@H](COP(=O)(O)OP(=O)(O)OP(=O)(O)O)[C@@H](O)[C@H]1O [Inosine 5-triphosphate] | -0.2055
O=c1[nH]cnc2c1ncn2[C@@H]1O[C@H](CO)[C@@H](O)[C@H]1O [Inosine] | 0.3045
OC[C@H]1O[C@H](OC[C@H]2OC(O)[C@H](O)[C@@H](O)[C@@H]2O)[C@H](O)[C@@H](O)[C@@H]1O (some centres unmarked) [Isomaltose] | -0.3372
O[C@@H]1[C@@H](O)[C@@H](O)CO[C@H]1O [L-Arabinose] | -0.1354
O=C1C[C@@H](C(=O)O)NC(=O)N1 [L-Dihydroorotic acid] | -0.07946
N[C@@H](CCC(=O)O)C(=O)O [L-Glutamic acid] | -0.006334
O=C(O)[C@@H]1CCCCN1 [L-Pipecolic acid] | -0.07553
O=C(O)[C@@H]1CCCN1 [L-Proline] | -0.05584

Now from value to compound:

log2(corrected fold change) | Structure (SMILES)
-0.1841 | CC(C)(COP(=O)(O)OP(=O)(O)OC[C@H]1O[C@@H](n2cnc3c(N)ncnc32)[C@H](O)[C@@H]1O)[C@@H](O)C(=O)NCCC(=O)NCCS [Dephosphocoenzyme A]
-0.03543 | Nc1nc2c(c(=O)[nH]1)N=C(CNc1ccc(C(=O)N[C@@H](CCC(=O)O)C(=O)O)cc1)CN2 [Dihydrofolic acid]
-0.4944 | OC[C@@H](O)[C@H](O)[C@H](O)[C@@H](O)CO [Dulcitol]
0.129 | Nc1nc(=O)c2c([nH]1)NC[C@@H](CNc1ccc(C(=O)N[C@@H](CCC(=O)O)C(=O)O)cc1)N2C=O [Folinic acid]
0.1652 | N[C@@H](CCC(=O)N[C@@H](CS)C(=O)O)C(=O)O [Gamma-Glu-Cys]
0.09175 | O=C(CO)COP(=O)(O)O [Glycerone phosphate]
0.1469 | NC(N)=NCC(=O)O [Guanidineacetic acid]
-0.08584 | O=C(O)Cc1cc(O)ccc1O [Homogentisic acid]
-0.09012 | CC(C)C(=O)NCC(=O)O [Isobutyrylglycine]
-0.1029 | CC[C@H](N)C(=O)O [L-2-Aminobutyric acid]
0.07649 | NC(=O)C[C@H](N)C(=O)O [L-Asparagine]
0.03257 | N[C@@H](CC(=O)O)C(=O)O [L-Aspartate]
-0.1221 | N[C@@H](CS)C(=O)O [L-Cysteine]
0.1976 | NC(=O)CC[C@H](N)C(=O)O [L-Glutamine]
0.05971 | N[C@@H](Cc1c[nH]cn1)C(=O)O [L-Histidine]
0.1418 | Nc1ccccc1C(=O)C[C@H](N)C(=O)O [L-Kynurenine]
-0.06897 | NCCCC[C@H](N)C(=O)O [L-Lysine]
0.06465 | CSCC[C@H](N)C(=O)O [L-Methionine]
